Laboratory results reported in patent US7973024B2, “24-sulfoximine vitamin D3 compounds” (Cyctochroma Inc., priority 2002, dated 2011).

Legend:
CYP24 [1] = target: T1, CYP24 (Homo sapiens, UniProt Q07973); assay: CYP24 enzyme assay (stable cell line V79-CYP24 cells); assay type: cell-based; settings: [3H-1β]-1α,25(OH)2D3 20 nM, 2 hours
T1 construct: expressed in transfected cells
T1 sequence (Q07973 36-514): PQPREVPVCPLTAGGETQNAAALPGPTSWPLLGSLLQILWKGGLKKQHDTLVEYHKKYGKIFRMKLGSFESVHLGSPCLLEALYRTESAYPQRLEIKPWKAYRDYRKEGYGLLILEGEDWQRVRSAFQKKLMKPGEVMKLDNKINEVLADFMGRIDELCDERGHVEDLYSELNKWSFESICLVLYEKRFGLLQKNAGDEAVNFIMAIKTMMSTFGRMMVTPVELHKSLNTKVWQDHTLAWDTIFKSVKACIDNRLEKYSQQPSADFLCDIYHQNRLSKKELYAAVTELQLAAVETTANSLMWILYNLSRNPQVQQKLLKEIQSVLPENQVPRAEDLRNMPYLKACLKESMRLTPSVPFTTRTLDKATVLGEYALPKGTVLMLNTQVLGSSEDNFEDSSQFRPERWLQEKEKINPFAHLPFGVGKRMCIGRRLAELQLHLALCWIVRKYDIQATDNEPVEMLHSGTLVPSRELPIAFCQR
Experimental: 1. Preparation of Cell Suspension • On the day of the assay, washed the monolayer of V79-CYP24 cells once with 1×PBS buffer and then trypsinize for 5 min at room temperature (approx. 22° C.). Added 1×PBS. Collected cells into tube, centrifuged cells (500×g, 5 min) and resuspended in DMEM+1% BSA media.
2. Cell Plating • Added 150 μl of cell suspension to appropriately labelled wells of a 48-well plate. Incubated plate for 30 minutes at 37° C. in a humidified atmosphere containing 5% CO2 for adherence of cells to wells.
3. Compound Addition • Added 25 μl of inhibitor (10^−6 to 10^−9 M) and then after 10 min added 25 μl of substrate [^3H-1β]-1α,25(OH)2D3 (20 nM) for 2 hours at 37° C. in a humidified atmosphere containing 5% CO2. Both inhibitor and substrate were prepared in DMEM with 1% BSA media in the absence and presence of 100 μM DPPD.
4. Lipid Extraction and Counting • Added 500 μL of methanol to stop the reaction. Transferred to tube. Added 250 μl of dichloromethane and vortexed. Added 250 μl of dichloromethane and 250 μl of saturated KCL and vortexed. Centrifuged at 4000 rpm for 5 min. Triplicate 100 μl aliquots of aqueous fraction were mixed with 600 μl of scintillation fluid and the radioactivity was measured using a scintillation counter. All values were normalized for background. (iii) Results.

VDR = target: T2, VDR (Homo sapiens, UniProt P11473); assay: VDR binding assay; settings: B50: displacement of 50 percent [3H]-1,25(OH)2D3 from human recombinant VDR
T2 construct: purchased Biomol
T2 sequence (P11473 1-427): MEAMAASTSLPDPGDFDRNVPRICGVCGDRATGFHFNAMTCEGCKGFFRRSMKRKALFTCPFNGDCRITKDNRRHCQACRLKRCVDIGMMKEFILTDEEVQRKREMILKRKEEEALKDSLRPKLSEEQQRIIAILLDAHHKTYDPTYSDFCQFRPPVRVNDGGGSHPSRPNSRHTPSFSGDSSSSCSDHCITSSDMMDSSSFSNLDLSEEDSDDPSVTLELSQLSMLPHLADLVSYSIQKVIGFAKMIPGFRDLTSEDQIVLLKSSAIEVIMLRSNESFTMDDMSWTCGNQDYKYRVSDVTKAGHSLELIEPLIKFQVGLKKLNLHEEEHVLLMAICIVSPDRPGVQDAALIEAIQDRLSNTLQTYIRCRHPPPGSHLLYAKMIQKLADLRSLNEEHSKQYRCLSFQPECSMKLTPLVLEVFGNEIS
Experimental: 1. VDR 9.4 pmol/μl (human, recombinant, Biomol).
4. TEK300 • Tris-HCI 50 mM • EDTA 1.5 mM • KCI 300 mM Adjust pH to 7.4 (25° C.)
3. Preparation of 1.25(OH)2D3 and test compounds in ethanol
1 μl stock VDR in 2.5 ml TEDK300/Gelatin solution (500 μl/tube), (keep on ice)
• Label tubes according to the following chart, each in triplicate:
• Mixed all tubes via vortex and incubated at room temperature for 1 hour. Added 10 μL of 3H-1,25(OH)2D3 Working Dilution, mixed by vortex and incubated at room temperature for 1 hour 2. Sample processing • Thirty minutes before addition, put Charcoal/Dextran Solution on ice with continuous mixing. Added […] of Charcoal/Dextran Solution to each tube, mixed well and incubated on ice for 30 minutes. Centrifuged @ 2000 rpm for 10 minutes at 4° C. 3. Counting • Pipetted 100 μL of the upper, aqueous phase to a 24 well scintillation counting plate and added 600 μL scintillation fluid per well, covered and mixed well. Counted the plate using a scintillation counter for 5 min/sample. (iv) Calculations: • The amount of 1,25(OH)2D3 to displace 50 percent [^3H]-1,25(OH)2D3 from VDR was calculated as B50 for 1,25(OH)2D3. The VDR binding of other compounds was calculated as B50 relative to a value of 1 for 1,25(OH)2D3.

[2] = tested on: normal human epidermal keratinocytes (NHEK); assay: Human epidermal keratinocyte proliferation assay; assay type: cell-based; settings: together with calcitriol, three days, [3H]-thymidine 18 h
Experimental: 1. HEK Cell Media • Supplemented KGM media with additional reagents provided in the bullet kit as per supplier's instructions. • Added calcium chloride to final concentration of 0.3 mM.
2. Calcitriol Dilutions • Stock: Calcitriol (1 mM)
3. Substrate Dilutions • Stock: substrate (0.1 mM)
1. Cell Culture • Thawed one vial of HEK cells containing at least 500 K, and divided into 5 25 cm^2 flasks with 5 ml HEK cell media. 24 h later, removed media and replenished with 5 ml fresh media. Changed media again 48 h later.
2. Preparation of Cell Suspension • On the day of the assay, washed the monolayer of HEK cells once with 1×PBS buffer (provided in reagent pack) and then trypsinized for 5 min at 37° C. Added trypsin neutralizing solution (provided in reagent pack). Collected cells into tube, centrifuged cells (500×g, 5 min) and resuspended in HEK cell media. Counted cells and adjusted density to 150,000 cells/ml. Diluted cells further 1:30 with HEK cell media.
2. Cell Plating • Added 150 μl of cell suspension to appropriately labelled wells of a 96-well plate. Incubated plate for 48 h at 37° C. in a humidified atmosphere containing 5% CO2 for adherence of cells to wells.
3. […]
4. Cell Harvesting and Counting • Added 0.2 μCi/well of [^3H]-thymidine in 20 μl of HEK cell media to each well. Incubated plates for 18 h at 37° C. in a humidified atmosphere containing 5% CO2. Aspirated media and washed with 1×PBS. Trypsinize-cells for 30 min at 37° C. in a humidified atmosphere containing 5% CO2. Harvested cells onto filter plates using Tomtec cell harvester as per manufacturer's instructions. Added 25 μl scintillation fluid per well. Measured radioactivity using a scintillation counter. All values were normalized for background.

CYP24 [3] = target: T1, CYP24; assay: In vitro test of ability to inhibit specifically CYP24 (standard protocol); assay type: cell-based; settings: ketoconazole as control standard

Row | Structure (SMILES) | IC50 (CYP24 [1]) | IC50 (VDR) | inhibition of proliferation of normal human epidermal keratinocytes (NHEK) [2] | selective inhibition of CYP24 (CYP24 [3])
1 | C=C1/C(=C\C=C2/CCC[C@]3(C)[C@@H]([C@H](C)CCS(=O)(=NC)c4ccccc4)CC[C@@H]23)C[C@@H](O)C[C@@H]1O (single isomer, unassigned) [I(e)] | 29 nM | > 2000 nM | act to inhibit the proliferation | selectively inhibit
2 | C[C@H](CCS(=N)(=O)c1ccccc1)[C@H]1CC[C@H]2/C(=C/C=C3C[C@@H](O)C[C@H](O)C3)CCC[C@]12C (single isomer, unassigned) [I(i), 24-Phenyl Sulfoximine 19-Nor-Vitamin-D3] | 8.5 nM | > 2000 nM | act to inhibit the proliferation | selectively inhibit
3 | C=C1/C(=C\C=C2/CCC[C@]3(C)[C@@H]([C@H](C)CCS(=O)(=NC)c4ccccc4)CC[C@@H]23)C[C@@H](O)C[C@@H]1O (single isomer, unassigned) [I(g)] | 26 nM |  |  | selectively inhibit
4 | C=C1/C(=C\C=C2/CCC[C@]3(C)[C@@H]([C@H](C)CCS(=N)(=O)c4ccccc4)CC[C@@H]23)C[C@@H](O)C[C@@H]1O (single isomer, unassigned) [I(a)] | 4 nM | > 2000 nM | act to inhibit the proliferation | 
